Holding throughout (type): physicochemical
A short description of data set [1]: 19F NMR chemical shifts and longitudinal relaxation rates at 188 MHz (4.7 T, 298K). As to conditions: for Longitudinal relaxation rate R1 ortho CF3 group / Longitudinal relaxation rate R1 other CF3 group / Limiting 19F chemical shift δF ortho CF3 group / Limiting 19F chemical shift δF other CF3 group if present: 188 MHz; for Limiting 19F chemical shift δF ortho CF3 group / Limiting 19F chemical shift δF other CF3 group if present: pH 5.5, referred to NaCF3CO2 δF −76.1 ppm. As to the method:
^19F NMR chemical shifts and longitudinal relaxation rates for various lanthanide complexes of L^1, L^2 and L^3 were measured at 188 MHz (4.7 T, 298K).

Data set [2] can be described thus: 19F NMR pH titration, acid-base equilibrium fit. As to conditions: ratio of integrated 19F intensities −59/−53 and −65/−64 ppm. From the text: Solid lines: least-squares fits to the fast-exchange acid-base equilibrium equation for the chemical shift.
Solid lines: least-squares fits to the slow-exchange acid-base equilibrium equation for the NMR line intensity.
The NH group of [Ln.L^4] deprotonates in alkaline conditions, causing the CF3 group of [Ho.L^4] to shift from −55.1 ppm to −36.8 ppm under basic conditions (see FIG. 3). Because the acid-base equilibrium is fast in this system ([…] lanthanide re-coordination involved), only one signal is observed, with the chemical shift corresponding to the weighted average of the chemical shifts of the individual forms.
The higher pKa values in biofluids are the result of additional stabilization of the acidic form by carbonate coordination (see FIG. 4) (S. Aime, A. Barge, M. Botta, J. A. K. Howard, R. Kataky, M. P. Lowe, J. M. Moloney, D. Parker and A. S. de Sousa, Chem. Commun., 1999, 1047); (Y. Bretonniere, M. J. Cann, D. Parker and R. J. Slater, Org. Biomol. Chem., 2004, 2, 1624). The basic form exists as a mixture of two diastereomers, defined by the R or S configuration at the sulphur atom (Scheme 3). The experimental ratio is 6:1 (298 K, pH=8), resonating at −98 and −112 ppm respectively. […]

The nature of data set [3]: Eu luminescence emission intensity ratio versus pH. As to conditions: 298K, H2O, 0.1 M NaCl.
A short description of data set [4]: Comparative 19F NMR signal intensity of paramagnetic complexes versus diamagnetic [YL^1]. As to conditions: 188 MHz (4.7 T), 298K. As to the method: A comparative analysis examined the ortho-CF3 resonance in ^19F NMR spectra of the diamagnetic Y complex, [YL^1] (R1 0.93 s^−1, {linewidth, ω1/2=2 Hz}) and the terbium (R1 90 s^−1 {.ω1/2 90 Hz} and Dy (R1 77 s^−1 {.ω1/2 35 Hz}) analogues. Using a relaxation delay of 3 times T1, ^19F spectra were acquired over a common time interval of 30 minutes (2 mM complex, 188 MHz (4.7 T), 298K, typical S/N ratio per mM was 100:1). The relative signal intensity ratios per mM of complex (peak height times peak width at half height; processing used a line-broadening function equal to half of the observed linewidth, for the given complex resonance) for observation of the major ortho-CF3 resonance in [TmL^1], [DyL^1] and [TbL^1] versus the diamagnetic analogue, [YL^1], were 52:1 22:1 and 41:1 respectively. This is consistent with the ability to increase the number of scans acquired for the faster relaxing CF3 resonance in the paramagnetic complexes.

[5] abbreviates: N-protonated complex, pH 5.5, 188 MHz.

SMILES strings stand for the structures. Values joined by “and” are separate entries in the source; they are usually repeats but may differ in a detail not shown here. Identical values can stand only once.

Consider `O=C([O-])CN1CCN(CC[N-]S(=O)(=O)c2cc(C(F)(F)F)ccc2C(F)(F)F)CCN(CC(=O)[O-])CCN(CC(=O)[O-])CC1.[Eu+3]` [[EuL^2]^−], for which, in data set [1] (pH 5.5), the “Longitudinal relaxation rate R1 ortho CF3 group” value was found to be 2.5 s⁻¹ and the “Longitudinal relaxation rate R1 other CF3 group” value is 1.5 s⁻¹. In data set [1], the “Limiting 19F chemical shift δF ortho CF3 group” value is on record as −53 ppm and the “Limiting 19F chemical shift δF other CF3 group if present” value is −65 ppm. Also, in data set [1] (setting [5]), the “R1 ortho CF3 group, N-protonated complex (value in parentheses)” value was determined as 2.2 s⁻¹; the “R1 other CF3 group, N-protonated complex (value in parentheses)” value was found to be 1.2 s⁻¹; the “δF ortho CF3 group, N-protonated complex (value in parentheses)” value is recorded as −59 ppm; the “δF other CF3 group, N-protonated complex (value in parentheses)” value is −64 ppm. Besides, in data set [2], the “Complex protonation constant pKMLH” value is 5.5 (±0.05). For the same molecule, the “Apparent protonation constant from Eu emission band intensity ratio” value in data set [3] amounted to 5.5.

Take `O=C([O-])CN1CCN(CC[N-]S(=O)(=O)c2cc(C(F)(F)F)ccc2C(F)(F)F)CCN(CC(=O)[O-])CCN(CC(=O)[O-])CC1.[Tb+3]` [[TbL^2]^−]: in data set [1] (pH 5.5), the “Longitudinal relaxation rate R1 ortho CF3 group” value turned out to be 71 s⁻¹ and the “Longitudinal relaxation rate R1 other CF3 group” value was determined as 23 s⁻¹. Further, in data set [1], the “Limiting 19F chemical shift δF ortho CF3 group” value is listed as −159 ppm and the “Limiting 19F chemical shift δF other CF3 group if present” value was −45 ppm. Moreover, in data set [1] (setting [5]), the “δF ortho CF3 group, N-protonated complex (value in parentheses)” value is −59 ppm and the “δF other CF3 group, N-protonated complex (value in parentheses)” value was −64 ppm.

For the molecule `O=C([O-])CN1CCN(CC(=O)[O-])CCN(CC(=O)Nc2ccc(C(F)(F)F)cc2C(F)(F)F)CCN(CC(=O)[O-])CC1.[Tm+3]` [[TmL^1]], in data set [1] (pH 5.5), the “Longitudinal relaxation rate R1 ortho CF3 group” value turned out to be 16 s⁻¹ and the “Longitudinal relaxation rate R1 other CF3 group” value was determined as 5.6 s⁻¹. Further, in data set [1], the “Limiting 19F chemical shift δF ortho CF3 group” value is −79.6 ppm and the “Limiting 19F chemical shift δF other CF3 group if present” value was −55 ppm.

With `O=C([O-])CN1CCN(CC(=O)[O-])CCN(CC(=O)Nc2ccc(C(F)(F)F)cc2C(F)(F)F)CCN(CC(=O)[O-])CC1.[Y+3]` [[YL^1]], in data set [1] (pH 5.5), the “Longitudinal relaxation rate R1 ortho CF3 group” value is 0.93 s⁻¹ and 0.9 s⁻¹; the “Longitudinal relaxation rate R1 other CF3 group” value is around 0.9 s⁻¹. Further, the “Longitudinal relaxation rate R1 ortho CF3 group” value in data set [1] (pH 5.5, listed as yttrium (III) complex of ligand L^1) is around 0.9 s⁻¹. In addition, in data set [1], the “Limiting 19F chemical shift δF ortho CF3 group” value is −61.3 ppm and the “Limiting 19F chemical shift δF other CF3 group if present” value is on record as −63.1 ppm. The “Linewidth ω1/2 of ortho-CF3 resonance” value in data set [4] is given as 2 Hz.

For the molecule `O=C([O-])CN1CCN(CC(=O)[O-])CCN(CC(=O)Nc2ccc(C(F)(F)F)cc2C(F)(F)F)CCN(CC(=O)[O-])CC1.[Yb+3]` [[YbL^1]], in data set [1] (pH 5.5), the “Longitudinal relaxation rate R1 ortho CF3 group” value turned out to be 4.6 s⁻¹ and the “Longitudinal relaxation rate R1 other CF3 group” value was 1.7 s⁻¹. For the same molecule, in data set [1], the “Limiting 19F chemical shift δF ortho CF3 group” value is reported as −65.4 ppm and the “Limiting 19F chemical shift δF other CF3 group if present” value is −59.6 ppm.

The values above are taken from patent US20110021765A1, “FLUORINATED LANTHANIDE PROBES FOR 19F MAGNETIC RESONANCE APPLICATIONS” (priority 2007, published 2011).
